Assay results published in patent US20210023120A1, “COMPOSITIONS FOR THE DELIVERY OF tRNA AS NANOPARTICLES AND METHODS OF USE THEREWITH” (The Board of Regents of the University of Texas System, priority 2016, published 2021).

Tested on: p53
Assay: Nanoparticle carrier screen in Calu6 cells (p53 Western blot)
Format: cell-based
Conditions: nmP53 (R196X), exogenous tRNAArg/OP, 48 hr exposure, FIGS. 6B, 9, 10, 12
Procedure: Calu6 cells were seeded at a density of 500,000 cells per well in a 6-well format and allowed to attach over night. For plasmid DNA, 1 μg was transfected using 3 μl of Lipofectamine 2000 using manufacturer recommend protocols. For tRNA^Arg/RNAiMax, 4 μg was transfected using 3 μl of RNAiMax using manufacturer recommended protocols. Particles were diluted in Opti-MEM (Invitrogen), G418 (50 μg) and PTC124 ([…]) was added directly to the media. Nanoparticles were prepared by mixing all delivery components in ethanol, followed by rapid mixing with tRNA in 10 mM citrate buffer pH 4.3, such that the final mole ratio was 25:1 carrier:siRNA, and the carrier mixture of the formulation consisted of molar ratios 50:38:10:2 carrier: cholesterol: DSPC: PEG-lipid. […] After 48 hr, cells were lysed directly in 2× Sample Buffer ((Tris-HCL 250 mM, pH 6.8, 20% Glycerol, 2.5% SDS, 0.1% Bromophenol blue). Cell lysate proteins were separated by electrophoresis on 10% (wt/vol) polyacrylamide gels using a Tris-glycine buffering system and transferred to polyyinylidene fluoride Immobilon membranes (EMD Millipore). Western blot analysis was performed using primary p53 antibody (Santa Cruz Biotechnology, Inc) actin antibody (EMD Millipore), and secondary antibody IRdye-68ORD (Li-Cor) and imaged/quantified using a Li-Cor Odyssey CLx (Li-Cor).

| Compound | p53 expression (Western blot) |
| --- | --- |
| CN[C@@H]1[C@@H](O)[C@@H](O[C@@H]2[C@@H](O)[C@H](O[C@H]3O[C@H]([C@@H](C)O)[C@@H](O)[C@H](O)[C@H]3N)[C@@H](N)C[C@H]2N)OC[C@]1(C)O [G418] | only minimal p53 expression |
| O=C(O)c1cccc(-c2noc(-c3ccccc3F)n2)c1 [PTC124] | only minimal p53 expression |
